Laboratory results reported in PubChem BioAssay AID330 (DTP/NCI, 2004).
Where “and” joins values, the source holds several entries; their conditions need not be identical. Equal entries are not always repeated. Toxic doses and inconclusive results are not listed.

Tested on: P388 leukemia ip, CD2F1 mice, survival T/C
Assay: NCI In Vivo Anticancer Drug Screen. Data for tumor model P388 Leukemia (intraperitoneal) in CD2F1 (CDF1) mice
Conditions: endpoint: median survival time, higher = longer survival
Method in brief: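 Mice carrying the transplanted tumor received test compound or vehicle. Survival was recorded in each group, and the value is the treated-group measurement divided by that of the vehicle-treated control group.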

[1] = dose: 50.0 mg/kg/injection, schedule: Q01DX005 (ip), vehicle: saline with Tween-80
[2] = dose: 100.0 mg/kg/injection, schedule: Q01DX009 (ip), vehicle: saline with Tween-80
[3] = dose: 50.0 mg/kg/injection, schedule: Q01DX005 (ip), vehicle: Klucel (hydroxypropylcellulose) (HPC)
[4] = dose: 100.0 mg/kg/injection, schedule: Q01DX005 (ip), vehicle: Klucel (hydroxypropylcellulose) (HPC)
[5] = dose: 200.0 mg/kg/injection, schedule: Q01DX005 (ip), vehicle: Klucel (hydroxypropylcellulose) (HPC)
[6] = dose: 50.0 mg/kg/injection, schedule: Q01DX009 (ip), vehicle: Klucel (hydroxypropylcellulose) (HPC)
[7] = dose: 100.0 mg/kg/injection, schedule: Q01DX009 (ip), vehicle: Klucel (hydroxypropylcellulose) (HPC)
[8] = dose: 200.0 mg/kg/injection, schedule: Q01DX009 (ip), vehicle: Klucel (hydroxypropylcellulose) (HPC)

With `Cc1ccnc(NN=O)n1` the T/C (dose: 3.12 mg/kg/injection, schedule: Q01DX009 (ip), vehicle: water) was 99 % of control, the T/C (dose: 6.25 mg/kg/injection, schedule: Q01DX009 (ip), vehicle: water) was 113 % of control and the T/C (dose: 12.5 mg/kg/injection, schedule: Q01DX009 (ip), vehicle: water) was 98 % of control. For the same compound, the T/C (dose: 25.0 mg/kg/injection, schedule: Q01DX009 (ip), vehicle: water) was 100 % of control and 105 % of control, the T/C (dose: 50.0 mg/kg/injection, schedule: Q01DX009 (ip), vehicle: water) was 113 % of control and 90 % of control and the T/C (dose: 100.0 mg/kg/injection, schedule: Q01DX009 (ip), vehicle: water) was 100 % of control. The T/C (dose: 200.0 mg/kg/injection, schedule: Q01DX009 (ip), vehicle: water) was 104 % of control.

With `NC(=S)N/N=C1/C(=O)N(C2CCCCCC2)C(=O)C1C(=O)NC1CCCCCC1` (stereo not given) the T/C (dose: 12.5 mg/kg/injection, schedule: Q01DX005 (ip), vehicle: saline with Tween-80) was 105 % of control, the T/C (dose: 25.0 mg/kg/injection, schedule: Q01DX005 (ip), vehicle: saline with Tween-80) was 99 % of control and the T/C [1] was 104 % of control and 90 % of control.

In the case of `COc1cc2c(cc1O)C(=O)CCC(C(=O)O)=C2`, the T/C [2] is reported as 92 % of control.

With `N/C(=N\S(=O)(=O)c1ccccc1)[N+](=O)[O-]` the T/C [3] was 102 % of control, the T/C [4] was 102 % of control and the T/C [5] was 98 % of control.

With `CNC(=O)C1OCCOCCOC(C(=O)NC)C(C(=O)NC)OCCOCCOC1C(=O)NC` (stereo not given) the T/C [3] was 96 % of control, the T/C [4] was 98 % of control and the T/C [5] was 97 % of control.

With `O=C1CSC(=S)N1N1C(=O)CSC1=S` the T/C [6] was 107 % of control, the T/C [7] was 102 % of control and the T/C [8] was 96 % of control.

`COc1ccc(Cl)cc1C(c1cc(Cl)ccc1OC)C(Cl)(Cl)Cl` was tested, and the T/C [2] was 100 % of control, the T/C (dose: 200.0 mg/kg/injection, schedule: Q01DX009 (ip), vehicle: saline with Tween-80) was 100 % of control and the T/C (dose: 400.0 mg/kg/injection, schedule: Q01DX009 (ip), vehicle: saline with Tween-80) was 90 % of control.

With `COc1ccc2c(c1OC)C(C(Cl)(Cl)Cl)N1CCc3cc4c(cc3C1=C2C=O)OCO4` (stereo not given) the T/C [1] was 98 % of control, the T/C (dose: 100.0 mg/kg/injection, schedule: Q01DX005 (ip), vehicle: saline with Tween-80) was 90 % of control and the T/C (dose: 200.0 mg/kg/injection, schedule: Q01DX005 (ip), vehicle: saline with Tween-80) was 90 % of control.

`CN1CC[N+](C)(Cc2ccc(C[N+]3(C)CC[N+](C)(Cc4ccc(CCl)cc4)CC3)cc2)CC1` (stereo not given) was tested, and the T/C (dose: 12.5 mg/kg/injection, schedule: Q04DX003 (ip), vehicle: saline) was 112 % of control, the T/C (dose: 25.0 mg/kg/injection, schedule: Q04DX003 (ip), vehicle: saline) was 102 % of control and the T/C (dose: 50.0 mg/kg/injection, schedule: Q04DX003 (ip), vehicle: saline) was 119 % of control.

With `CCn1c2ccccc2c2cc(N)c(N=Nc3ccc([N+](=O)[O-])c(OC)c3)cc21` the T/C [6] was 104 % of control, the T/C [7] was 104 % of control and the T/C [8] was 105 % of control.

In the case of `CC1(C)N=C(N)N=C(N)N1c1cccc(CNC(=O)Nc2cccc(S(=O)(=O)F)c2)c1`, the T/C (dose: 44.0 mg/kg/injection, schedule: Q01DX009 (ip), vehicle: saline with Tween-80) is reported as 159 % of control, the T/C (dose: 50.0 mg/kg/injection, schedule: Q01DX009 (ip), vehicle: saline) is reported as 163 % of control and the T/C (dose: 67.0 mg/kg/injection, schedule: Q01DX009 (ip), vehicle: saline with Tween-80) is reported as 163 % of control. The T/C [2] was 168 % of control.

For `COC(=O)c1cc(OC)c2cccnc2c1Nc1ccccc1`, the T/C (dose: 60.0 mg/kg/injection, schedule: Q01DX005 (ip), vehicle: saline with Tween-80) was 102 % of control, the T/C (dose: 120.0 mg/kg/injection, schedule: Q01DX005 (ip), vehicle: saline with Tween-80) was 102 % of control and the T/C (dose: 240.0 mg/kg/injection, schedule: Q01DX005 (ip), vehicle: saline with Tween-80) was 100 % of control.

For `C=CCNC(=S)N\N=C/C(/C=C/c1ccccc1)=N\NC(=S)NCC=C`, the T/C (dose: 100.0 mg/kg/injection, schedule: Q04DX002 (ip), vehicle: Klucel (hydroxypropylcellulose) (HPC)) was 103 % of control, the T/C (dose: 200.0 mg/kg/injection, schedule: Q04DX002 (ip), vehicle: Klucel (hydroxypropylcellulose) (HPC)) was 91 % of control and the T/C (dose: 400.0 mg/kg/injection, schedule: Q04DX002 (ip), vehicle: Klucel (hydroxypropylcellulose) (HPC)) was 91 % of control.

With `CCc1nc(N)nc(-c2nc(N)nc(CC)c2C)c1C` the T/C (dose: 60.0 mg/kg/injection, schedule: Q01DX005 (ip), vehicle: saline) was 106 % of control, the T/C (dose: 120.0 mg/kg/injection, schedule: Q01DX005 (ip), vehicle: saline) was 104 % of control and the T/C (dose: 240.0 mg/kg/injection, schedule: Q01DX005 (ip), vehicle: saline) was 108 % of control.
